Experiments:
Cercospora beticola = assay: in vivo evaluation as fungicidal agents, sugar beet cercospora
Method: (§1) in Vivo Evaluation as Fungicidal Agents (Table 2)
(§2) Compounds are dissolved in acetone, diluted to the desired concentration with water and surfactant and sprayed onto the test plants. After drying, the test plants are treated with fungal inoculum. When disease symptom development is optimal, plants are rated for disease control. Inoculated untreated plants, solvent/surfactant treated plants and plants treated with a reference standard are used for comparison.
SBC Sugar beet cercospora
(§3) Compounds are rated for control of each disease according to the rating scale shown below: […]

[1] = test system: Rhizoctonia solani Kuehn AG1 1A; assay: in vitro inhibition of mycelial growth, RHIZSO; type: cell-based
Method: (§4) in Vitro Evaluation of the Inhibition of the Mycelial Growth by Target (Table 3)
(§5) Severe soilborne diseases such as damping off, seedling blight, crown rot, and root rot, among others are caused by certain plant pathogenic fungi. An in Vitro assay is conducted to determine whether test compounds will inhibit the mycelial growth of said fungi. Pathogens, the method of testing, and the rating system used are reported below.
(§6) General Procedure for the in Vitro Fungicide Screen Assay fungi included the following plant pathogens: FUSOXC Fusarium oxysporum Schlechtend: Fr.f.sp. cucumerinim J. H. Owen
(§7) RHIZSO Rhizoctonia solani Kuehn AG1 1A
(§8) The test compound (2.5-10 mg) is dissolved in 0.5 ml acetone, diluted with 4.5 ml sterile deionized water, and mixed with 95 ml of an autoclaved and partially cooled, chemically defined agar medium in a 250 ml flask. Test compounds that are insoluble are prepared as a fine suspension ultrasonically or with a glass tissue grinder, before addition to the medium. The chemically defined medium (CDM) used in these experiments is as follows:
(§9) CDM is sterilized by autoclaving or by filtration through a […]
(§10) The mixture of test compound and agar medium as described above is poured into several 100 mm×15 mm sterile plastic plates and allowed to solidify. The surface of each plate is inoculated with a single disc of mycelium and agar cut with an 8 mm diameter cork borer from actively growing cultures of assay fungi on a chemically defined agar medium. The plates are incubated at room temperature. Growth inhibition is determined when the mycelial growth on unamended control media has reached the edge of the petri plates. The time interval varies depending on the growth rate of the fungus. Each colony diameter is measured and compared with the untreated control and the percent inhibition is calculated as follows: [formula]
(§11) Each test includes a solvent blank consisting of the formulation without a test compound in addition to the untreated control.

Botrytis cinerea = assay: in vivo evaluation as fungicidal agents, pepper botrytis
Method: as §1, §2
PB Pepper botrytis Botrytis cinerea
as §3

Pythium ultimam = assay: in vitro inhibition of mycelial growth, PYTHUL; type: cell-based; details: for activity against Pythium: in vitro
Method: as §4, §5, §6
PYTHUL Pythium ultimam Trow
as §8, §9, §10, §11

Leptosphaeria nodurum = assay: in vivo evaluation as fungicidal agents, wheat septoria nodorum
Alternaria solani = assay: in vivo evaluation as fungicidal agents, tomato early blight
Method: as §1, §2, §3

other fungi = assay: in vitro inhibition of mycelial growth, other fungi; type: cell-based
Method: as §4, §5, §6
(§12) PSDCHE Psudocercosporella herpotrichoides Deighton
as §7
The test compound (2.5-10 mg) is dissolved in 0.5 ml acetone, diluted with 4.5 ml sterile deionized water, and mixed with 95 ml of an autoclaved and partially cooled, chemically defined agar medium in a 250 ml flask. […]
The mixture of test compound and agar medium as described above is poured into several 100 mm×15 mm sterile plastic plates and allowed to solidify. […] Growth inhibition is determined when the mycelial growth on unamended control media has reached the edge of the petri plates. […] Each colony diameter is measured and compared with the untreated control and the percent inhibition is calculated as follows: [formula]

Plasmopara viticola = assay: in vivo evaluation as fungicidal agents, grape downy mildew; details: for disease control rating GDM: grape downy mildew
Method: as §1, §2, §3

Pyricularia oryzae = details: in vivo
[2] = test system: Psudocercosporella herpotrichoides; assay: in vitro inhibition of mycelial growth, PSDCHE; type: cell-based
Method: as §4, §5, §6, §12, §8, §9, §10, §11

Venturia inaequalis = assay: in vivo evaluation as fungicidal agents, apple scab
Method: as §1, §2
AS Apple scab Venturia inaequalis
as §3

[3] = test system: Fusarium oxysporum Schlechtend: Fr.f.sp. cucumerinim; assay: in vitro inhibition of mycelial growth, FUSOXC; type: cell-based
Method: as §4, §5, §6, §8, §9, §10, §11

[4] = test system: Erysiphe graminis f.sp. tritici; assay: in vivo evaluation as fungicidal agents, wheat powdery mildew
Method: as §1, §2
WPM Wheat powdery mildew
as §3

## O=C1[C@@H]2O[C@@H]2C2(Oc3cccc4cccc(c34)O2)[C@]23O[C@]12[C@H](O)C=CC3=O [07F275sigma]
Cercospora beticola; 12.5 ppm
  disease control rating SBC: 0 (0)
Cercospora beticola; 50.0 ppm
  disease control rating SBC: 0 (0)
Cercospora beticola; 200.0 ppm
  disease control rating SBC: 0 (0)
[1]; 1.0 ppm
  mycelial inhibition RHIZSO: 1
[1]; 10.0 ppm
  mycelial inhibition RHIZSO: 1
[1]; 25.0 ppm
  mycelial inhibition RHIZSO: 1
Botrytis cinerea; 12.5 ppm
  disease control rating PB: 0 (0)
Botrytis cinerea; 50.0 ppm
  disease control rating PB: 0 (0)
Botrytis cinerea; 200.0 ppm
  disease control rating PB: 0 (0)
Pythium ultimam; 1.0 ppm
  mycelial inhibition PYTHUL: 3
Pythium ultimam; 10.0 ppm
  mycelial inhibition PYTHUL: 7
Pythium ultimam; 10 ppm
  activity against Pythium: active
Pythium ultimam; 25.0 ppm
  mycelial inhibition PYTHUL: 7
Pythium ultimam; dosages lower than 10 ppm
  activity against Pythium: not at lower dosages
Leptosphaeria nodurum; 12.5 ppm
  disease control rating WSN: 0 (0)
Leptosphaeria nodurum; 50.0 ppm
  disease control rating WSN: 0 (0)
Leptosphaeria nodurum; 200.0 ppm
  disease control rating WSN: 0 (0)
Alternaria solani; 12.5 ppm
  disease control rating TEB: 0 (0)
Alternaria solani; 50.0 ppm
  disease control rating TEB: 0 (0)
Alternaria solani; 200.0 ppm
  disease control rating TEB: 0 (0)
Other fungi
  activity against other fungi in vitro: Little or no activity
Plasmopara viticola; 12.5 ppm
  disease control rating GDM: 0 (0)
Plasmopara viticola; 50.0 ppm
  disease control rating GDM: 4 (45-59)
Plasmopara viticola; 200.0 ppm
  disease control rating GDM: 6 (75-89)
Plasmopara viticola; greenhouse test, 200 ppm
  reduction of disease severity, GDM: about 85%
Plasmopara viticola; greenhouse test, dosages lower than 200 ppm
  disease control, GDM: Little to no control
Pyricularia oryzae
  disease control, RB: Little to no control
  reduction of disease severity, RB: about 85%
[2]; 1.0 ppm
  mycelial inhibition PSDCHE: 1
[2]; 10.0 ppm
  mycelial inhibition PSDCHE: 1
[2]; 25.0 ppm
  mycelial inhibition PSDCHE: 1
Venturia inaequalis; 12.5 ppm
  disease control rating AS: 0 (0)
Venturia inaequalis; 50.0 ppm
  disease control rating AS: 0 (0)
Venturia inaequalis; 200.0 ppm
  disease control rating AS: 0 (0)
[3]; 1.0 ppm
  mycelial inhibition FUSOXC: 0
[3]; 10.0 ppm
  mycelial inhibition FUSOXC: 0
[3]; 25.0 ppm
  mycelial inhibition FUSOXC: 0
[4]; 12.5 ppm
  disease control rating WPM: 0 (0)
[4]; 50.0 ppm
  disease control rating WPM: 0 (0)
[4]; 200.0 ppm
  disease control rating WPM: 0 (0)

Reference: patent US5789604A, “Isolation, characterization and structures of new antibiotic components produced by fungal culture 07F275” (priority 1993, dated 1998)
